Structures are written as SMILES.

Drawing on patent publication US8030354B2, “Substituted biphenyl GPR40 modulators” (Amgen Inc., priority 2007, dated 2011), this text covers EC50 for 20 compounds.

Sequence of GPR40 (O14842 whole entry): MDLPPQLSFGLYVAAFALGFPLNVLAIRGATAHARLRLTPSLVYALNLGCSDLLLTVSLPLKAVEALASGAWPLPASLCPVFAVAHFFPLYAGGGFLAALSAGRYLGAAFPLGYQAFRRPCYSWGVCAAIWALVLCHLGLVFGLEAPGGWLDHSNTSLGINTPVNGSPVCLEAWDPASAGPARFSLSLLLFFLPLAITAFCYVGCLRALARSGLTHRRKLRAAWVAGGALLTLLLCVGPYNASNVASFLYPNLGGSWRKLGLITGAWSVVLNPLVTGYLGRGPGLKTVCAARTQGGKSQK

In this assay the target is GPR40 (Homo sapiens, UniProt O14842). As to the kind of experiment: Cell-based aequorin assay (CHO cells stably expressing GPR40 and aequorin). To be noted: activation of human GPR40, CHO cells, 0.01% HSA. Set-up: expressed in transfected cells; host or cells: CHO cells stably transfected with GPR40 and aequorin. The gist of the method:
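CHO cells stably co-expressing GPR40 and aequorin, loaded with coelenterazine (1 ug/mL, 2 h, room temperature) in H/HBSS with 20 mM Hepes and 0.01% fatty acid-free HSA. Serially diluted compounds added; luminescence recorded over 20 s. EC50 from dose-response of maximum relative light units.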
Turning to `COc1ccc(F)c(-c2ccc(COc3cccc([C@@H](CC(=O)O)C4CC4)c3F)cc2[C@H](O)C2(C)CC2)c1` (single isomer, unassigned) [Example 83.18], the EC50 (in general, the concentration giving half of the maximal effect) fell in the range of 1000 to 10000 nM. As for `COC[C@H](CC(=O)O)c1cccc(OCc2ccc(-c3cc(OC)ccc3F)c(C(C)(C)C)c2)c1` (single isomer, unassigned) [Example 102, (3R)-3-(3-(((2-(1,1-Dimethylethyl)-2′-fluoro-5′-(methyloxy)-1,1′-biphenyl-4-yl)methyl)oxy)phenyl)-4-(methyloxy)butanoic acid or (3S)-3-(3-(((2-(1,1-dimethylethyl)-2′-fluoro-5′-(methyloxy)-1,1′-biphenyl-4-yl)methyl)oxy)phenyl)-4-(methyloxy)butanoic acid], the EC50 is 100 to 1000 nM. Next, `CCC(CC(=O)O)c1cc(F)cc(OCc2ccc(-c3cc(OC)ccc3F)c(C3=CCCC3(C)C)c2)c1F` (single isomer, unassigned) [Example 101.1, (3S)-3-(3-(((2-(5,5-Dimethyl-1-cyclopenten-1-yl)-2′-fluoro-5′-(methyloxy)-1,1′-biphenyl-4-yl)methyl)oxy)-2,5-difluorophenyl)pentanoic acid or (3R)-3-(3-(((2-(5,5-dimethyl-1-cyclopenten-1-yl)-2′-fluoro-5′-(methyloxy)-1,1′-biphenyl-4-yl)methyl)oxy)-2,5-difluorophenyl)pentanoic acid]: 1000 to 10000 nM; `CCCC(CC(=O)O)c1cccc(OCc2ccc(-c3cc(OC)ccc3F)c(OCC3CCCCC3)c2)c1` (single isomer, unassigned) [Example 67.17, (3R)-3-(3-(((2-((Cyclohexylmethyl)oxy)-2′-fluoro-5′-(methyloxy)-1,1′-biphenyl-4-yl)methyl)oxy)phenyl)hexanoic acid or (3S)-3-(3-(((2-((cyclohexylmethyl)oxy)-2′-fluoro-5′-(methyloxy)-1,1′-biphenyl-4-yl)methyl)oxy)phenyl)hexanoic acid]: 100 to 1000 nM; `CC1(c2cccc(-c3ccc(COc4cccc(C(CC(=O)O)C5CC5)c4)cc3C3CCCC3(C)C)c2)OCCO1` (single isomer, unassigned) [Example 66.72, (S)-3-(3-((S)-3-((S)-2,2-Dimethylcyclopentyl)-4-(3-(2-methyl-1,3-dioxolan-2-yl)phenyl)benzyloxy)phenyl)-3-cyclopropylpropanoic acid or stereoisomer thereof]: 1000 to 10000 nM. The figure for `COc1ccc(F)c(-c2ccc(COc3cccc([C@H](C)CC(=O)O)c3)cc2OCc2ccccc2)c1` (single isomer, unassigned) [Example 30, (3R)-3-(3-(((2′-Fluoro-5′-(methyloxy)-2-((phenylmethyl)oxy)-1,1′-biphenyl-4-yl)methyl)oxy)phenyl)butanoic acid or (3S)-3-(3-(((2′-fluoro-5′-(methyloxy)-2-((phenylmethyl)oxy)-1,1′-biphenyl-4-yl)methyl)oxy)phenyl)butanoic acid] is 1000 to 10000 nM; for `COc1cccc(-c2ccc(COc3cccc(CCC(=O)O)c3)cc2C(C)(C)C)c1` [Example 40, 3-(3-(((2-(1,1-Dimethylethyl)-3′-(methyloxy)-1,1′-biphenyl-4-yl)methyl)oxy)phenyl)propanoic acid] it is 100 to 1000 nM. The figure for `COc1ccc(F)c(-c2ccc(COc3cccc([C@@H](CC(=O)O)c4ccon4)c3)cc2C(C)(C)C)c1` [Example 94.2, (3R)-3-(3-(((2-(1,1-Dimethylethyl)-2′-fluoro-5′-(methyloxy)-1,1′-biphenyl-4-yl)methyl)oxy)phenyl)-3-(3-isoxazolyl)propanoic acid] is 1000 to 10000 nM; for `CCCC(CC(=O)O)c1cccc(OCc2ccc(-c3cc(OC)ccc3F)c(C3CCCC3(C)C)c2)c1` (single isomer, unassigned) [Example 80.3] it is 100 to 1000 nM. `COc1ccc(F)c(-c2ccc(COc3cccc([C@@H](CC(=O)O)C(C)C)c3)cc2C(C)(C)C)c1` (single isomer, unassigned) [Example 52] displayed an EC50 of 1000 to 10000 nM. The compound `C=CC(C)(C)C(O)c1cc(COc2cccc(C(CC(=O)O)CC3CC3)c2)ccc1-c1cc(OC)ccc1F` (single isomer, unassigned) [Example 69.40] returned an EC50 of 1000 to 10000 nM. `CCCCCOc1cc(COc2cccc(C(CCC)CC(=O)O)c2)ccc1-c1cc(OC)ccc1F` (single isomer, unassigned) [Example 67.1, (3R)-3-(3-(((2′-Fluoro-5′-(methyloxy)-2-(pentyloxy)-1,1′-biphenyl-4-yl)methyl)oxy)phenyl)hexanoic acid or (3S)-3-(3-(((2∝-fluoro-5′-(methyloxy)-2-(pentyloxy)-1,1′-biphenyl-4-yl)methyl)oxy)phenyl)hexanoic acid] registered an EC50 of 100 to 1000 nM.

On to `CC1(C)CCC[C@@H]1c1cc(COc2cccc([C@@H](CC(=O)O)C3CC3)c2F)ccc1-c1ccccc1F` (single isomer, unassigned) [Example 83.23], for which the EC50 lay within 100 to 1000 nM.

The compound `COc1ccc(F)c(-c2ccc(COc3cccc(C(C)CC(=O)O)c3)cc2OCC(C)(C)C)c1` (single isomer, unassigned) [Example 64.1, (3R)-3-(3-(((2-((2,2-Dimethylpropyl)oxy)-2′-fluoro-5′-(methyloxy)-1,1′-biphenyl-4-yl)methyl)oxy)phenyl)butanoic acid or (3S)-3-(3-(((2-((2,2-dimethylpropyl)oxy)-2′-fluoro-5′-(methyloxy)-1,1′-biphenyl-4-yl)methyl)oxy)phenyl)butanoic acid] came in with an EC50 of 100 to 1000 nM.

In the case of `COc1ccc(F)c(-c2ccc(COc3cccc([C@@H](CC(=O)O)C4CC4)c3)cc2[C@@H]2CCCCC2(C)C)c1` (single isomer, unassigned) [Example 66.21], the EC50 was in the range of 100 to 1000 nM. The figure for `CCCCCOc1cc(COc2cccc([C@H](C)CC(=O)O)c2)ccc1-c1cc(OC)ccc1F` (single isomer, unassigned) [Example 28, (3R)-3-(3-(((2′-Fluoro-5′-(methyloxy)-2-(pentyloxy)-1,1′-biphenyl-4-yl)methyl)oxy)phenyl)butanoic acid or (3S)-3-(3-(((2′-fluoro-5′-(methyloxy)-2-(pentyloxy)-1,1′-biphenyl-4-yl)methyl)oxy)phenyl)butanoic acid] is 100 to 1000 nM; for `COc1ccc(F)c(-c2ccc(COc3cccc([C@@H](CC(=O)O)C4CC4)c3)cc2[C@H](F)C(C)(C)C)c1` (single isomer, unassigned) [Example 66.30] it is 100 to 1000 nM; for `C=CC(C)(C)[C@H](OC)c1cc(COc2cccc([C@@H](CC(=O)O)CC3CC3)c2)ccc1-c1cc(OC)ccc1F` (single isomer, unassigned) [Example 69.39] it is 1000 to 10000 nM.

Turning to `CCCC(CC(=O)O)c1cccc(OCc2ccc(-c3cc(OC)ccc3F)c(C3CCCC3)c2)c1` (single isomer, unassigned) [Example 67.10, (3R)-3-(3-(((2-Cyclopentyl-2′-fluoro-5′-(methyloxy)-1,1′-biphenyl-4-yl)methyl)oxy)p acid or (3S)-3-(3-(((2-cyclopentyl-2′-fluoro-5′-(methyloxy)-1,1′-biphenyl-4-yl)methyl)oxy)phenyl)hexanoic acid], the EC50 was 100 to 1000 nM. The figure for `CCC(CC(=O)O)c1cc(F)cc(OCc2ccc(-c3cc(OC)ccc3F)c(C3CCCC3(C)C)c2)c1F` (single isomer, unassigned) [Example 101.2] is 100 to 1000 nM.
